Patent publication US20220396565A1 (Hoffmann-La Roche Inc., priority 2020, published 2022)
Counter-ions that a name gives are not always drawn.

System: Acinetobacter baumannii ATCC17961
Assay: Antimicrobial susceptibility testing: 90% growth inhibitory concentration (IC90) determination, Iso-Sensitest broth
Assay type: cell-based
Details: Acinetobacter baumannii, ATCC17961, 90% growth inhibitory concentration, Acinetobacter baumannii ATCC17961, Iso-Sensitest broth; read-out: ATCC 17961 IC90
Method in brief: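 Twofold serial dilutions (e.g. 10 to 0.02 μM final) were tested in Iso-Sensitest broth against ~5×10^(5) CFU/ml at 35±2 °C. OD600 was read every 20 min over 16 h. IC90 was derived from growth inhibition during the logarithmic phase.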

Point of comparison: `COc1ccc(-c2cnc(C(=O)Nc3ccc(C(=O)N4CCC(NC(=O)[C@@H]5C[C@@H](O)CN5)CC4)c(Cl)c3)n2C)c(F)c1F` [Example 102, N-[3-chloro-4-[4-[[(2S,4R)-4-hydroxypyrrolidine-2-carbonyl]amino]piperidine-1-carbonyl]phenyl]-5-(2,3-difluoro-4-methoxy-phenyl)-1-methyl-imidazole-2-carboxamide], IC90 90 nM. Against it:
- Cn1c(-c2ccc(OC(F)F)c(F)c2F)cnc1C(=O)Nc1ccc(C(=O)N2CCC(C(=O)NC3CCNCC3)CC2)c(Cl)c1 [Example 94, 1-(2-chloro-4-(5-(4-(difluoromethoxy)-2,3-difluorophenyl)-1-methyl-1H-imidazole-2-carboxamido)benzoyl)-N-(piperidin-4-yl)piperidine-4-carboxamide formate] — 2.2-fold lower, 40 nM
- Cn1c(-c2ccc(OC(F)F)c(F)c2F)cnc1C(=O)Nc1ccc(C(=O)N2CCC(C(=O)N[C@H]3CCNC3)CC2)c(Cl)c1 [Example 95, (S)-1-(2-chloro-4-(5-(4-(difluoromethoxy)-2,3-difluorophenyl)-1-methyl-1H-imidazole-2-carboxamido)benzoyl)-N-(pyrrolidin-3-yl)piperidine-4-carboxamide formate] — 1.8-fold lower, 50 nM
- Cn1c(-c2ccc(OC(F)F)c(F)c2F)cnc1C(=O)Nc1ccc(C(=O)N2CCC(C(=O)N[C@@H]3CNC[C@H]3O)CC2)c(Cl)c1 [Example 96, 1-(2-chloro-4-(5-(4-(difluoromethoxy)-2,3-difluorophenyl)-1-methyl-1H-imidazole-2-carboxamido)benzoyl)-N-((3R,4R)-4-hydroxypyrrolidin-3-yl)piperidine-4-carboxamide formate] — 2.2-fold lower, 40 nM
- CCc1cc(NC(=O)c2ncc(-c3ccc(OC)c(F)c3F)n2C)ccc1C(=O)N1CCC(C(=O)N2CCN(CCCN(C)C)CC2)CC1 [Example 97, 5-(2,3-difluoro-4-methoxy-phenyl)-N-[4-[4-[4-[3-(dimethylamino)propyl]piperazine-1-carbonyl]piperidine-1-carbonyl]-3-ethyl-phenyl]-1-methyl-imidazole-2-carboxamide] — 2.9-fold higher, 260 nM
- CCc1cc(NC(=O)c2ncc(-c3ccc(OC)c(F)c3F)n2C)ccc1C(=O)N1CCC(C(=O)NCCOCCN(C)C)CC1 [Example 99, 1-[4-[[5-(2,3-difluoro-4-methoxy-phenyl)-1-methyl-imidazole-2-carbonyl]amino]-2-ethyl-benzoyl]-N-[2-[2-(dimethylamino)ethoxy]ethyl] piperidine-4-carboxamid] — 5.3-fold higher, 480 nM
- CCc1cc(NC(=O)c2ncc(-c3ccc(OC)c(F)c3F)n2C)ccc1C(=O)N1CCC(C(=O)NCCN)CC1 [Example 100, N-(2-aminoethyl)-1-[4-[[5-(2,3-difluoro-4-methoxy-phenyl)-1-methyl-imidazole-2-carbonyl]amino]-2-ethyl-benzoyl]piperidine-4-carboxamide] — 3.8-fold higher, 340 nM
- COc1ccc(-c2cnc(C(=O)Nc3ccc(C(=O)N4CCC(NC(=O)CCN(C)C)CC4)c(Cl)c3)n2C)c(F)c1F [Example 101, N-[3-chloro-4-[4-[3-(dimethylamino)propanoylamino]piperidine-1-carbonyl]phenyl]-5-(2,3-difluoro-4-methoxy-phenyl)-1-methyl-imidazole-2-carboxamide formate] — 1.8-fold lower, 50 nM
- COc1ccc(-c2cnc(C(=O)Nc3ccc(C(=O)N4CCC(NC(=O)CCN)CC4)c(Cl)c3)n2C)c(F)c1F [Example 103, N-[4-[4-(3-aminopropanoylamino)piperidine-1-carbonyl]-3-chloro-phenyl]-5-(2,3-difluoro-4-methoxy-phenyl)-1-methyl-imidazole-2-carboxamide formate] — 1.5-fold lower, 60 nM
- COc1ccc(-c2cnc(C(=O)Nc3ccc(C(=O)N4CCN(C(=O)[C@H]5CC[C@@H](N)C5)CC4)c(Cl)c3)n2C)c(F)c1F [Example 108, N-[4-[4-[(1S,3R)-3-aminocyclopentane-carbonyl]piperazine-1-carbonyl]-3-chloro-phenyl]-5-(2,3-difluoro-4-methoxy-phenyl)-1-methyl-imidazole-2-carboxamide; formate] — 2.2-fold lower, 40 nM
- COc1ccc(-c2cnc(C(=O)Nc3ccc(C(=O)N4CCC(NC(=O)[C@@H]5CCNC5)C4)c(Cl)c3)n2C)c(F)c1F (stereo partly drawn) [Example 109, N-[3-chloro-4-[3-[[(3R)-pyrrolidine-3-carbonyl]amino]pyrrolidine-1-carbonyl]phenyl]-5-(2,3-difluoro-4-methoxy-phenyl)-1-methyl-imidazole-2-carboxamide formate] — 1.7-fold higher, 150 nM
- COc1ccc(-c2cnc(C(=O)Nc3ccc(C(=O)N4CCC(NC(=O)C5CCNCC5)C4)c(Cl)c3)n2C)c(F)c1F (stereo not shown) [Example 110, N-[1-[2-chloro-4-[[5-(2,3-difluoro-4-methoxy-phenyl)-1-methyl-imidazole-2-carbonyl]amino]benzoyl]pyrrolidin-3-yl]piperidine-4-carboxamide formate] — 2-fold higher, 180 nM
- COc1ccc(-c2cnc(C(=O)Nc3ccc(C(=O)N4CCC(NC(=O)CCOCCN)C4)c(Cl)c3)n2C)c(F)c1F (stereo not shown) [Example 111, N-[4-[3-[3-(2-aminoethoxy)propanoylamino]pyrrolidine-1-carbonyl]-3-chloro-phenyl]-5-(2,3-difluoro-4-methoxy-phenyl)-1-methyl-imidazole-2-carboxamide formate] — 3.3-fold higher, 300 nM
- COc1ccc(-c2cnc(C(=O)Nc3ccc(C(=O)N4CC5(C4)CN(C(=O)[C@@H]4C[C@@H](O)CN4)C5)c(Cl)c3)n2C)c(F)c1F [Example 112, N-[3-chloro-4-[2-[(2S,4R)-4-hydroxypyrrolidine-2-carbonyl]-2,6-diazaspiro[3.3]heptane-6-carbonyl]phenyl]-5-(2,3-difluoro-4-methoxy-phenyl)-1-methyl-imidazole-2-carboxamide] — 2.6-fold higher, 230 nM
- COc1ccc(-c2cnc(C(=O)Nc3ccc(C(=O)N4CCN(C(=O)C5(O)CCNCC5)CC4)c(C)c3)n2C)c(Cl)c1F [Example 118, 5-(2-chloro-3-fluoro-4-methoxy-phenyl)-N-[4-[4-(4-hydroxypiperidine-4-carbonyl)piperazine-1-carbonyl]-3-methyl-phenyl]-1-methyl-imidazole-2-carboxamide formate] — 1.6-fold higher, 140 nM
- COc1ccc(-c2cnc(C(=O)Nc3ccc(C(=O)N4CCN(C(=O)C5CC6(CNC6)C5)CC4)c(C)c3)n2C)c(Cl)c1F [Example 119, N-[4-[4-(2-azaspiro[3.3]heptane-6-carbonyl)piperazine-1-carbonyl]-3-methyl-phenyl]-5-(2-chloro-3-fluoro-4-methoxy-phenyl)-1-methyl-imidazole-2-carboxamide; formic acid] — within 1.5-fold, 120 nM
- COc1ccc(-c2cnc(C(=O)Nc3ccc(C(=O)N4CCN(C(=O)C5CCN(C(=O)CN(C)C)CC5)CC4)c(Cl)c3)n2C)c(F)c1F [Example 120, N-[3-chloro-4-[4-[1-[2-(dimethylamino)acetyl]piperidine-4-carbonyl]piperazine-1-carbonyl]phenyl]-5-(2,3-difluoro-4-methoxy-phenyl)-1-methyl-imidazole-2-carboxamide] — 1.5-fold lower, 60 nM
- COc1ccc(-c2cnc(C(=O)Nc3ccc(C(=O)N4CCN(C(=O)CCCN)CC4)c(Cl)c3)n2C)c(F)c1F [Example 121, N-[4-[4-(4-aminobutanoyl)piperazine-1-carbonyl]-3-chloro-phenyl]-5-(2,3-difluoro-4-methoxy-phenyl)-1-methyl-imidazole-2-carboxamide; formic acid] — 2.2-fold lower, 40 nM
- COc1ccc(-c2cnc(C(=O)Nc3ccc(C(=O)N4CCN(C(=O)CCCC(N)=O)CC4)c(Cl)c3)n2C)c(F)c1F [Example 122, N-[4-[4-(5-amino-5-oxo-pentanoyl)piperazine-1-carbonyl]-3-chloro-phenyl]-5-(2,3-difluoro-4-methoxy-phenyl)-1-methyl-imidazole-2-carboxamide] — the same, 90 nM
- COc1ccc(-c2cnc(C(=O)Nc3ccc(C(=O)N4CCN(C(=O)CCN)CC4)c(Cl)c3)n2C)c(F)c1F [Example 123, N-[4-[4-(3-aminopropanoyl)piperazine-1-carbonyl]-3-chloro-phenyl]-5-(2,3-difluoro-4-methoxy-phenyl)-1-methyl-imidazole-2-carboxamide formate] — 2.2-fold lower, 40 nM
- COc1ccc(-c2cnc(C(=O)Nc3ccc(C(=O)N4CCN(C(=O)CCCCN)CC4)c(Cl)c3)n2C)c(F)c1F [Example 124, N-[4-[4-(5-aminopentanoyl)piperazine-1-carbonyl]-3-chloro-phenyl]-5-(2,3-difluoro-4-methoxy-phenyl)-1-methyl-imidazole-2-carboxamide formate] — 2.2-fold lower, 40 nM
- COc1ccc(-c2cnc(C(=O)Nc3ccc(C(=O)N4CCN(C(=O)C5CCC(=O)NC5)CC4)c(Cl)c3)n2C)c(F)c1F (stereo not shown) [Example 125, N-[3-chloro-4-[4-(6-oxopiperidine-3-carbonyl)piperazine-1-carbonyl]phenyl]-5-(2,3-difluoro-4-methoxy-phenyl)-1-methyl-imidazole-2-carboxamide] — within 1.5-fold, 110 nM
- COc1ccc(-c2cnc(C(=O)Nc3ccc(C(=O)N4CCN(C(=O)C5CCC(=O)N5)CC4)c(Cl)c3)n2C)c(F)c1F (stereo not shown) [Example 126, N-[3-chloro-4-[4-(5-oxopyrrolidine-2-carbonyl)piperazine-1-carbonyl]phenyl]-5-(2,3-difluoro-4-methoxy-phenyl)-1-methyl-imidazole-2-carboxamide] — within 1.5-fold, 110 nM
- COc1ccc(-c2cnc(C(=O)Nc3ccc(C(=O)N4CCN(C(=O)CC5CCC(=O)N5)CC4)c(Cl)c3)n2C)c(F)c1F (stereo not shown) [Example 127, N-[3-chloro-4-[4-[2-(5-oxopyrrolidin-2-yl)acetyl]piperazine-1-carbonyl]phenyl]-5-(2,3-difluoro-4-methoxy-phenyl)-1-methyl-imidazole-2-carboxamide] — within 1.5-fold, 100 nM

Same assay, conditions: Acinetobacter baumannii, ATCC17961, read-out: ATCC 17961 IC90

`Cn1c(-c2ccc(OC(F)F)c(F)c2F)cnc1C(=O)Nc1ccc(C(=O)N2CCC(C(=O)N[C@H]3CNC[C@@H]3O)CC2)c(Cl)c1` [Example 93, 1-(2-chloro-4-(5-(4-(difluoromethoxy)-2,3-difluorophenyl)-1-methyl-1H-imidazole-2-carboxamido)benzoyl)-N-((3S,4S)-4-hydroxypyrrolidin-3-yl)piperidine-4-carboxamide formate] showed an IC90 of 40 nM.
